Measured values as given in patent US6689799B1, “1,4-dihydropyridine-5-carboxylic acid ester derivatives and method for the preparation thereof” (Rephartox, priority 1999, dated 2004).
≈ marks a conversion by molar mass, not a printed value. Read-outs that look alike come from different tables or passages of the source.

Key:
[1] = test system: HeLa-cells; assay: Minimal toxic concentration, cell morphology of HeLa-cells; assay type: cell-based
[2] = Cytotoxicity, reduction of cell growth (Table 1, CMV); assay type: cell-based; conditions: Table 1, cytomegalovirus
[3] = test system: Cytomegalovirus Davis strain; assay: Cytomegalovirus antiviral activity, Davis strain; assay type: cell-based; conditions: Human betaherpesvirus 5, read-out: IC50: concentration at which the virus production is inhibited by 50%
Experimental: (§1) The compounds were tested for antiviral activity by the Rega Institute (Leuven, Belgium). The standard experiments for determining the biological activity of the compounds according to the invention were performed with CMV (Cytomegalovirus), varicella zoster virus, and RSV (respiratory syncytial virus). [table]

[4] = test system: Cytomegalovirus AD-169 strain; assay: Cytomegalovirus antiviral activity, AD-169 strain; assay type: cell-based; conditions: Human betaherpesvirus 5, AD169, read-out: IC50: concentration at which the virus production is inhibited by 50%
Experimental: as §1

[5] = Cytotoxicity, reduction of cell growth (Table 2, VZV); assay type: cell-based; conditions: Table 2, varicella zoster virus
[6] = test system: TK − VZV 07/1 strain; assay: microbe, parasite or virus in culture; assay type: cell-based, Varicella zoster virus; conditions: Human alphaherpesvirus 3, read-out: IC50: concentration at which the virus production is inhibited by 50%
Experimental: (§2) The compounds were tested for antiviral activity by the Rega Institute (Leuven, Belgium).
(§3) The standard experiments for determining the biological activity of the compounds according to the invention were performed with CMV (Cytomegalovirus), varicella zoster virus, and RSV (respiratory syncytial virus).

[7] = test system: TK − VZV YS/R strain; assay: microbe, parasite or virus in culture; assay type: cell-based, Varicella zoster virus; conditions: Human alphaherpesvirus 3, read-out: IC50: concentration at which the virus production is inhibited by 50%
Experimental: as §2, §3

[8] = test system: Respiratory syncytial virus; assay: Respiratory syncytial virus antiviral activity; assay type: cell-based; conditions: human respiratory syncytial virus, read-out: IC50: concentration at which the virus production is inhibited by 50%
Experimental: as §2, §3

[9] = microscopically detectable change in normal cell morphology of HeLa-cells

Molecule | MTC: Minimal toxic concentration [1] | CC50 [2] | IC50 [3] | IC50 [4] | CC50 [5] | IC50 [6] | IC50 [7] | MTC: Minimal toxic concentration [1, 9] | IC50 [8] | melting point
4-[{2-(7-Coumarinyloxy)ethoxy}phenyl)-3,5-dimethoxycarbonyl-2,6-dimethyl-1,4-dihydropyridine.ethylacetate [Example 30] | 100 mg/mL | – | – | – | – | – | – | – | – | –
Nc1nc2c(ncn2COC(CO)CO)c(=O)[nH]1 [DHPG, 9-[(1,3-dihydroxy-2-propoxy)methyl]guanine, reference compound] | – | > 200 µg/mL | 1.8 µg/mL (≈ 7.05 µM) | 1.8 µg/mL (≈ 7.05 µM) | – | – | – | – | – | –
COC(=O)C1=C(C)NC(C)=C(C(=O)OCCOc2cc(=O)oc3ccccc23)C1c1ccccc1 (centres unmarked) [Example 1, 2,6-Dimethyl-4-phenyl-5-methoxycarbonyl-3-[{2-(coumarin-4-yloxy)ethoxy}carbonyl]-1,4-dihydropyridine] | – | – | – | – | 4.5 µg/mL (≈ 9.46 µM) | 1.5 µg/mL (≈ 3.15 µM) | 1 µg/mL (≈ 2.1 µM) | 100 mg/mL | 2.4 µg/mL (≈ 5.05 µM) | –
COC(=O)C1=C(C)NC(C)=C(C(=O)OCCCOc2cc(=O)oc3ccccc23)C1c1ccccc1 (centres unmarked) [Example 4, 3-[{3-(Coumarin-4-yloxy)-1-propoxy}carbonyl]-2,6-dimethyl-5-methoxycarbonyl-4-phenyl-1,4-dihydropyridine] | – | – | – | – | – | – | – | 2.8 mg/mL | 0.16 µg/mL (≈ 0.327 µM) | –
COC(=O)C1=C(C)NC(C)=C(C(=O)OCC(C)(C)COc2cc(=O)oc3ccccc23)C1c1ccccc1 (centres unmarked) [Example 6, 3-[{3-(Coumarin-4-yloxy)-2,2-dimethyl-1-propoxy}carbonyl]-2,6-dimethyl-5-methoxycarbonyl-4-phenyl-1,4-dihydropyridine] | – | – | – | – | 8.5 µg/mL (≈ 16.4 µM) | 2 µg/mL (≈ 3.86 µM) | 1 µg/mL (≈ 1.93 µM) | – | – | –
CCOC(=O)C1=C(C)NC(COc2cc(=O)oc3ccccc23)=C(C(=O)OCC)C1c1cccc([N+](=O)[O-])c1 (centres unmarked) [Example 20, 2-(Coumarin-4-yloxymethyl)-3,5-diethoxycarbonyl-6-methyl-4-(3-nitrophenyl)-1,4-dihydropyridine] | – | – | – | – | 1.6 µg/mL (≈ 2.99 µM) | 0.07 µg/mL (≈ 0.131 µM) | 0.05 µg/mL (≈ 0.0935 µM) | – | – | 76 to 79 °C
CCOC(=O)C1=C(C)NC(COc2cc(=O)oc3ccccc23)=C(C(=O)OCC)C1c1ccccc1C(F)(F)F (centres unmarked) [Example 24, 2-(Coumarin-4-yloxymethyl)-3,5-diethoxycarbonyl-6-methyl-4-(2-trifluoromethylphenyl)-1,4-dihydropyridine] | – | > 200 µg/mL | 2.3 µg/mL (≈ 4.13 µM) | 2.4 µg/mL (≈ 4.3 µM) | > 200 µg/mL | 2.5 µg/mL (≈ 4.48 µM) | 1.5 µg/mL (≈ 2.69 µM) | 4.0 mg/mL | 0.8 µg/mL (≈ 1.43 µM) | –
